Experimental data reported in patent US20060093658A1 (priority 2004, published 2006).

What was measured:
[1] = in vivo; conditions: hairless, guinea pig
Experimental: The retainer ring containing the patch was loaded onto an impact applicator, and the patch was applied to the prepared skin site with an impact energy of 0.26 J, delivered in less than 10 ms.
Efficiency of delivery was calculated as the percentage delivered of the total dose coated onto the array. For mass balance calculations, drug residuals left on the skin and on the array were also taken into account.

[2] = cited from earlier work
[3] = clinical; conditions: both, human, in vivo, iv
Experimental: (§1) Methods: This was a 2-part study in healthy human volunteers (18-45 years). […] All treatments were administered 30 minutes after a subcutaneous injection of low-molecular weight heparin to counteract the increase in clotting factors in the healthy volunteer population. […] Topical effects were also examined. Pain upon patch application was scored and compared to subcutaneous saline injection with a 27-gauge needle. […] Bleeding assessment (visual and photographic) were measured 2 min post-system removal. […] Routine safely assessments were also included, including the following: solicitation of Adverse Events (AEs), measurement of vital signs, measurement of serum sodium concentration and platelets, and measurement of urine output, specific gravity and osmolality.
Data analysis included a review of PK parameters (Cmax, Tmax, elimination rate constant, apparent half-life, and AUCinf) and were estimated using standard methodology. […] The intra-individual (sigma) and inter-individual (CV %) variabilities were estimated using additive+proportional and log normal distributions, respectively. Model performance between hierarchical models was assessed both numerically (Objective Function, OBJ) and graphically (comparison of the predicted and observed data). A reduction of^3 6.7 units in OBJ per additional structural model parameter was considered significant at p<0.01 on the x^2 distribution.

[4] = test system: plasma coagulation Factor VIII; experiment: pharmacodynamic effect on plasma coagulation Factor VIII levels (one-stage clotting assay); assay type: in vivo, human
Experimental: as §1

[5] = in vivo; conditions: hairless, guinea pig; remark: listed apart in the source
[6] = skin response / tolerability of microneedle patches; assay type: in vivo
From the text: Following system removal, skin sites were visually assessed for signs of erythema, edema, bleeding, and infection until the sites returned to normal.

[7] = desmopressin-coated microneedle patches

In the case of `NC(=O)CC[C@@H]1NC(=O)[C@H](Cc2ccccc2)NC(=O)[C@H](Cc2ccc(O)cc2)NC(=O)CCSSC[C@@H](C(=O)N2CCC[C@H]2C(=O)N[C@H](CCCN=C(N)N)C(=O)NCC(N)=O)NC(=O)[C@H](CC(N)=O)NC1=O` [desmopressin], the dose excreted ([1]; iv, 20 ug) is listed as 71%, the bioavailability ([1]; outbred euthymic (ibm:GOHI-hr and IAF:HA-HO-hr)) is listed as 85% and the nasal bioavailability ([2]; human, in vivo, inhaled or intranasal) is listed as 3.4%. The oral bioavailability ([2]; oral administration) was 0.1%, the Tmax [3] was 0.26 h and the t1/2 [3] was 3.8 ± 1.25 h. For the same compound, the Tmax ([3]; 15 ug, time of peak concentration) was 0.25 h, the Tmax ([3]; Tmax) was 0.5 h and the half-life ([3]; mean half-life) was 3.1 to 3.8 h. For the same compound, the half-life ([3]; t1/2) was 3.1 ± 0.38 h, the “Factor VIII value” ([4]; IV-15 ug) was 280 % of baseline value and the “Factor VIII value” ([4]; IV-30 ug) was 321 % of baseline value. The “pharmacological activity of absorbed desmopressin (factor VIII measurements)” value ([4]; desmopressin absorbed after MFLX / IV) was “pharmacologically active”, the AUC ([5]; 82 ug) was 76 ng·h/mL and the Cmax ([5]; 82 ug) was 49 ng/mL. For the same compound, the AUC ([5]; iv, 11 ug) was 50.5 ng·h/mL, the Tmax ([5]; outbred euthymic (ibm:GOHI-hr and IAF:HA-HO-hr), 82 ug) was 1 h and the “tolerability of the desmopressin-coated microneedle patches” value ([6]; 5 or 15 min wear) was “well tolerated”. For the same compound, the “erythema following removal of the systems” value [6, 7] was “only mild erythema”, the “signs of edema, bleeding, or infection” value [6, 7] was “no signs of edema, bleeding, or infection” and the “time to resolution of erythema” value [6, 7] was ≤ 24 h.
